Results taken from US6184217A (Cephalon, Inc., priority 1997, dated 2001).

Experiments:
[1] = test system: striatal tyrosine hydroxylase (dopaminergic neurons); assay: Striatal tyrosine hydroxylase activity in high-dose MPTP-treated mice; type: in vivo; conditions: MPTP 40 mg/kg s.c., 7 days
Description: In a separate experiment, the activities of Compound A were assessed in a high dose MPTP-mouse model. A single 40 mg/kg injection of MPTP produced a 95% depletion in striatal tyrosine hydroxylase enzyme activity 7 days post-injection. Administration of Compound A at daily doses of between 0.03 and 3.0 mg/kg reduced the magnitude of the lesion, in a dose dependent manner.
Mice were treated with MPTP (40 mg/kg; s.c.) 4-6 hrs after the first Compound A injection. Compound A was then injected every day until the end of the experiment which was 7 days in duration. Striata were assessed for tyrosine hydroxylase enzyme activity. Asterisk indicates statistically significant difference (p<0.05) from MPTP-Vehicle treated animals.

[2] = test system: uptake of catecholamines into nerve endings; assay: Uptake of catecholamines into nerve endings; type: biochemical
[3] = test system: GABA-ergic neurons in the nucleus basalis magnocellularis; assay: Ibotenic acid lesion: glutamic acid decarboxylase-expressing (GABA-ergic) neurons in nbm; type: in vivo, Sprague-Dawley rats
Description: Compound A was tested for its ability to prevent depletion (e.g., enhance the survival) of GABA-ergic neurons in the nucleus basalis magnocellularis, using the well-established ibotenic acid lesion mode. Ibotenic acid, an excitotoxin, is known to reduce numbers of GABA-expressing neurons in the nbm region (Lindefors et al., Neurosci. Lett., 135:262-264, 1992; Shaugnessy et al., Brain Res., 637:15-26, 1994). […] The rats were then dosed with Compound A (0.03 mg/kg) via subcutaneous injection beginning 18 hours after the lesion, and continuing q.o.d. until 18 days post-lesion. […] The numbers of neurons expressing glutamic acid decarboxylase were then counted throughout the rostral-caudal extent of the nucleus basalis magnocellularis, in a region where glutamic acid decarboxylase-expressing neurons of the nbm are easily distinguished from glutamic acid decarboxylase-expressing neurons in adjacent structures (white matter medial and ventral to the globus pallidus). The results were expressed as percent glutamic acid decarboxylase-expressing neurons on the lesioned side relative to the number on the opposite, unlesioned side. The results were also calculated separately for the rostral nbm, mid-nmb, and caudal nbm.

[4] = test system: nbm neurons; assay: Ibotenic acid lesion: Fluoro-Gold-labeled nbm neurons; type: in vivo, Sprague-Dawley rats; conditions: 0.03 mg/kg s.c. every other day until 18 days post-lesion
Source text: To test directly the ability of Compound A to prevent excitotoxic neuron death, nbm neurons in adult male Sprague-Dawley rats were first labeled with a long-lasting marker. This was done by injecting Fluoro-Gold (FG), a neuronal tracer that is taken up by nerve terminals and transported back to the cell body (Book et al., J. Neuropath. Exp. Neurology, 53:95-102, 1994), into target regions of nbm neurons in the frontal and parietal cortex. 7-10 days later the animals received lesion of the nbm unilaterally, using 5 μg of ibotenic acid. Beginning 18 hours after this lesion, the animals received Compound A (0.03 mg/kg) via subcutaneous injection, every other day until 18 days post-lesion. Tissue sections were collected throughout the entire rostral-caudal extent of the nbm on both sides of the brain, and numbers of nbm neurons with the FG label were counted. The counts were corrected for size differences using standard procedures, and the results expressed as the percent of labeled neurons in the nbm on the lesioned side of each animal relative to the number of labeled neurons in the nbm on the opposite unlesioned side of the brain.

[5] = test system: glutamatergic neurons in layer 2 of the entorhinal cortex; assay: NMDA entorhinal cortex lesion model; type: in vivo, rats; conditions: 1 mg/kg s.c. daily, p<0.05
Source text: Glutamate-containing neurons in layer 2 of the entorhinal cortex project to the molecular layer of the dentate gyrus, where they form synapses on the dendrites of the dentate gyrus granule cells. A lesion can be created in layer 2 of entorhinal cortex by stereotaxic injection of the excitotoxin N-methyl-D-asparate (NMDA). Under sodium pentobarbitol anesthesia, rats received an injection of NMDA (15 nmols/site) at each of 2 sites in the entorhinal cortex. Two weeks later, the rats were sacrificed and perfused with a 50 mM sodium sulfide solution. The brains were removed, sectioned in the horizontal plane at a thickness of 40 μm, and stained with either Cresyl violet or Timm'stain. The survival of neurons in layer 2 of entorhinal cortex was assessed in Cresyl violet stained sections, while the integrity of their axon terminals in the molecular layer of the dentate gyrus was measured in alternate sections stained with Timm's stain.
Injection of NMDA destroyed 62±11% (s.e.m.) of entorhinal layer 2 and decreased the area of the dentate gyrus middle molecular layer by 19±6% (s.e.m.). […] Thus, Compound A protected neurons in the entorhinal cortex from an excitotoxic lesion and maintained the integrity of their axon terminals in the dentate gyrus.

[6] = test system: IL-1β; assay: LPS-induced IL-1β in the serum of mice; type: in vivo, C57BL mice; conditions: LPS dose 1.0 ip; 30 mg/kg ip 2 h before LPS; vehicle 300 ± 87; N = 8
Description: Sixty female C57BL mice (4-6 weeks old) were divided into six groups, each with 10 animals. Three groups (1,3,5) received vehicle only (PBS containing 0.1% TEA (tetraethyl ammonium hydrochloride)), 200 μl/mouse via intraperitoneal (ip) administration. The other three groups (2,4,6) received Compound A (30 mg/kg in 200 μl, ip) of vehicle (PBS containing 10% of the ethyl ester of 12-hydroxystearic acid; solutol). Two hours later, the animals received by ip administration, 0.1 mg/kg of LPS (groups 1 & 2), 0.5 mg/kg of LPS (groups 3 & 4), and 1.0 mg/kg of LPS (groups 5 % 6). Two hours after LPS administration, all of the animals were sacrificed, and plasma samples were obtained and assayed for their […] and IL-1β content. Assays were carried out as described in Example 8.
The numbers in are the group numbers as described above. N indicates the number of animals from which plasma measurements where made. ND=not done.

[7] = biological target: monoamine oxidase-B (Homo sapiens, UniProt P27338); assay: Monoamine oxidase-B inhibition in vitro; conditions: FIG. 2
monoamine oxidase-B, sequence (P27338 whole entry): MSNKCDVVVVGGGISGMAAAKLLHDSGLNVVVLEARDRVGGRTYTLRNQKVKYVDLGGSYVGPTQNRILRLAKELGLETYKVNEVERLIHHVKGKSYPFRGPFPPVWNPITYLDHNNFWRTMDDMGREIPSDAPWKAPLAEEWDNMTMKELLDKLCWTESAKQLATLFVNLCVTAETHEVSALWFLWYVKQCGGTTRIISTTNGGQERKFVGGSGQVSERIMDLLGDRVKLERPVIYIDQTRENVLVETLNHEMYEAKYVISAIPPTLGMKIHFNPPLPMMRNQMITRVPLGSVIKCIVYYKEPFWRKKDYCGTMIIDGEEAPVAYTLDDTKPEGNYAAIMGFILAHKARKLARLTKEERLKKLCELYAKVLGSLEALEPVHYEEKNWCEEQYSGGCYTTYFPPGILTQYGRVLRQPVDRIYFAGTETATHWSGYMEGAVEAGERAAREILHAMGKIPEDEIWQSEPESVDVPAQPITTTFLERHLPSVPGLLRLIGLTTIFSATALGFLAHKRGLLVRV

With `CCSCc1ccc2c(c1)c1c3c(c4c5cc(CSCC)ccc5n5c4c1n2C1CC(O)(C(=O)OC)C5(C)O1)CNC3=O` (stereo not drawn) [Compound A] the “% Unlesioned Control” value ([1]; 0.03 mg/kg daily) was 8 ± 2.5%, the “Striatal TH Activity (± SEM)” value ([1]; 0.03 mg/kg daily) was 1.8 ± 0.6 and the “% Unlesioned Control” value ([1]; 0.3 mg/kg daily) was 12 ± 2.5%. For the same compound, the “Striatal TH Activity (± SEM)” value ([1]; 0.3 mg/kg daily) was 2.7 ± 0.6, the “% Unlesioned Control” value ([1]; 3.0 mg/kg daily) was 23 ± 8.0% and the “Striatal TH Activity (± SEM)” value ([1]; 3.0 mg/kg daily) was 5.3 ± 1.8. For the same compound, the “block of uptake of catecholamines into nerve endings” value [2] was “found not to inhibit monoamine oxidase A or B in vitro (FIGS. 1 and 2) or block uptake of catecholamines into nerve endings”, the “glutamic acid decarboxylase-expressing neurons vs vehicle-only animals” value ([3]; mid-nbm or caudal nbm, 0.03 mg/kg s.c. q.o.d.) was “No statistically significant differences” and the “glutamic acid decarboxylase-expressing neurons on lesioned side relative to unlesioned side” value ([3]; rostral nbm, 0.03 mg/kg s.c. q.o.d. until 18 days post-lesion, mean, s.e.m., p<0.05 vs vehicle (34 ± 19)) was 78 (±16 s.c.m.) percent. The “effect on FG-labeled neurons at mid-lesion and caudal to the lesion” value [4] was “declining effect”, the “Fluoro-Gold-labeled neurons in rostral portion of lesioned nbm vs vehicle only” value ([4]; over 400 μm from midpoint of lesion, P<0.05 (FIG. 3)) was “significantly more FG-labeled neurons” and the “decrease in area of dentate gyrus middle molecular layer” value ([5]; NMDA alone 19±6% decrease) was “prevented the decrease in area of the middle molecular layer”. For the same compound, the “loss of entorhinal layer 2 neurons” value ([5]; s.e.m., NMDA alone 62±11%) was 22±10%, the IL-1β [6] was 59 ± 19 pg/mL and the “monoamine oxidase-B inhibition” value [7] was “not a monoamine oxidase-B inhibitor”.
